Structures are written as SMILES.

In the experiment the target is T1, EGFR TMLRCS (Homo sapiens, UniProt P00533, C797S/L858R/T790M).
T1 construct: host or cells: BaF3-TMLRCS (Ba/F3 cells, kept under puromycin selection)
T1 sequence (P00533 25-1210 T790M/C797S/L858R): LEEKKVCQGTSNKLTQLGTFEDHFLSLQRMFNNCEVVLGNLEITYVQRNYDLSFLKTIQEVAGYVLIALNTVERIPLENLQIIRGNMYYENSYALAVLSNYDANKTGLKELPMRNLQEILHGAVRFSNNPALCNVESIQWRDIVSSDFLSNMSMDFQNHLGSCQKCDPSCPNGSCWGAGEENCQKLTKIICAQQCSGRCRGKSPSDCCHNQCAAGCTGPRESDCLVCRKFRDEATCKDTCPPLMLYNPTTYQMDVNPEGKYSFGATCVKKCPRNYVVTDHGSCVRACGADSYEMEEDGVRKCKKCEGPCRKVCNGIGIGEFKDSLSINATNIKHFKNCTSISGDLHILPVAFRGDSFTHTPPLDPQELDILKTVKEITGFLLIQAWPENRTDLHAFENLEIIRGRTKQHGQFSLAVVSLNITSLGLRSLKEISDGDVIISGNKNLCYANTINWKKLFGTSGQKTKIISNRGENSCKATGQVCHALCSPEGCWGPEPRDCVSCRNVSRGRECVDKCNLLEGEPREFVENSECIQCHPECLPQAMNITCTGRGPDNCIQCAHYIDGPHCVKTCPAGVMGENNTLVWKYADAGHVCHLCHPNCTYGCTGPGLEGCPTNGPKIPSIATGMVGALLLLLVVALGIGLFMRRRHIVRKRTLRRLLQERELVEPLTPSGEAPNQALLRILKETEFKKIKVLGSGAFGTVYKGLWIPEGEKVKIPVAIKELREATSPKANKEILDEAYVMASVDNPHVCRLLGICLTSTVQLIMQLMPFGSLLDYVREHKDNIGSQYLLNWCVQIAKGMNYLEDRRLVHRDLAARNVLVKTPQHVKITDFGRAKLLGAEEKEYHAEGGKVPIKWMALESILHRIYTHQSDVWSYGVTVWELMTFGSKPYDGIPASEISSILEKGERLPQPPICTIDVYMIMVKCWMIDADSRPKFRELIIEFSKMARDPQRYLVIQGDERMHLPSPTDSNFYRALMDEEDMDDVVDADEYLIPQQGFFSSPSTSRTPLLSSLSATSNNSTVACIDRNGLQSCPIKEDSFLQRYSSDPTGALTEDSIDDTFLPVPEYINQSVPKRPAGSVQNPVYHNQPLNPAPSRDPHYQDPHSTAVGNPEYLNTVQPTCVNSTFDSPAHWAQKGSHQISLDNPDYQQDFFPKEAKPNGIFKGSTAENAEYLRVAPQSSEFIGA
The experiment can be described thus: HTRF Phospho EGFR TMLRCS Assay (Cellular). The format is cell-based. As to conditions: BaF3-TMLRCS cell line, 4 hours incubation, Phospho-EGFR HTRF readout. As for the experimental part: HTRF Phospho EGFR TMLRCS Assay (Cellular)
BaF3-TMLRCS cell line were obtained from Crownbio (San Diego, CA, USA). Cells were maintained at 37° C., 5% CO2 in RPMI ATCC (Gibco 31870)+2 mM Glutamine+0.5 μg/ml Puromycin supplemented with 10% fetal bovine serum (FBS) (Gibco).
Cells are transferred as above to Greiner Bio-One, Nr. 784-08 micro-titerplate at 20000 cells/well in 12.5 μl of growth medium/well after the plates had been pre-filled with 12.5 nl of DMSO solutions of the to be tested compounds (in dose response) or DMSO only. After spinning the plates at 300×g for 30 seconds the cells were incubated for 4 hours at 37 C, 5% CO2, 95% humidity. The cells were lysed by adding to the compound mix 4 μl/well of the supplemented lysis buffer (Cis-bio, Phospho-EGFR HTRF kit, 64EG1PEH), followed by incubation for 30 min at room temperature with shaking (400 rpm). The plates were then frozen and stored overnight at −80 C. On the next day and after thawing the plates, 4 μl of a mixture of anti-Phospho-EGFR Cryptate and of anti-Phospho-EGFR-d2 antibody solutions prepared in the supplied detection buffer was added to each well. The lidded plates were then incubated for 4 h at room temperature before reading the fluorescence emission at 616 and 665 nm using an Envision reader (Perkin Elmer). Data was analyzed in similar fashion as above using the normalized ratio of the 665 to 616 signals multiplied by 10000.
By IC50 is commonly meant the concentration needed to halve the response being measured. Lower therefore signals greater potency. In turn, `O=C(Nc1nccs1)C(c1ncn2c1C[C@@H](F)C2)n1cc2c(Cl)cc(-c3ccc(N4CCC(CN5CCC(O)C5)CC4)cc3)c(Cl)c2n1` (mixture of isomers) [Example 74, rac-2-(4,7-Dichloro-6-(4-(4-((3-hydroxypyrrolidin-1-yl)methyl)piperidin-1-yl)phenyl)-2H-indazol-2-yl)-2-((R)-6-fluoro-6,7-dihydro-5H-pyrrolo[1,2-c]imidazol-1-yl)-N-(thiazol-2-yl)acetamide] registered an IC50 of 12 nM.
Take `O=C(Nc1nccs1)C(c1ncn2c1C[C@@H](F)C2)n1cc2c(Cl)cc(-c3ccc(C4CC(CN5CCC(CO)CC5)C4)cc3)c(Cl)c2n1` (mixture of isomers) [Example 75, rac-2-(4,7-Dichloro-6-(4-(34(4-(hydroxymethyl)piperidin-1-yl)methyl)cyclobutyl)phenyl)-2H-indazol-2-yl)-2-((R)-6-fluoro-6,7-dihydro-5H-pyrrolo[1,2-c]imidazol-1-yl)-N-(thiazol-2-yl)acetamide]: 8 nM corresponded to half-maximal inhibition (IC50). Compared with the last molecule, the IC50 is about 1.5-fold lower.
On to `O=C(Nc1nccs1)C(c1ncn2c1C[C@@H](F)C2)n1cc2c(Cl)cc(-c3ccc(C4CC(CN5CCC(O)CC5)C4)cc3)c(Cl)c2n1` (mixture of isomers) [Example 76, rac-2-(4,7-Dichloro-6-(4-(34(4-hydroxypiperidin-1-yl)methyl)cyclobutyl)phenyl)-2H-indazol-2-yl)-2-((R)-6-fluoro-6,7-dihydro-5H-pyrrolo[1,2-c]imidazol-1-yl)-N-(thiazol-2-yl)acetamide], for which 11 nM corresponded to half-maximal inhibition (IC50).
Take `O=C(Nc1nccs1)C(c1ncn2c1C[C@@H](F)C2)n1cc2c(Cl)cc(-c3ccc(OCCN4CCC(O)CC4)cc3)c(Cl)c2n1` (mixture of isomers) [Example 77, rac-2-(4,7-Dichloro-6-(4-(2-(4-hydroxypiperidin-1-yl)ethoxy)phenyl)-2H-indazol-2-yl)-2-((R)-6-fluoro-6,7-dihydro-5H-pyrrolo[1,2-c]imidazol-1-yl)-N-(thiazol-2-yl)acetamide]: half-maximal inhibition (IC50) was put at 1 nM.
In the case of `CC(CCO)N1CCC(Oc2ccc(-c3cc(Cl)c4cn(C(C(=O)Nc5nccs5)c5ncn6c5C[C@@H](F)C6)nc4c3Cl)cc2)CC1` (mixture of isomers) [Example 86, 2-[4,7-Dichloro-6-[4-[[1-(3-hydroxy-1-methyl-propyl)-4-piperidyl]oxy]phenyl]indazol-2-yl]-2-[rac-(6R)-6-fluoro-6,7-dihydro-5H-pyrrolo[1,2-c]imidazol-1-yl]-N-thiazol-2-yl-acetamide], half-maximal inhibition (IC50) was put at 6 nM.
Regarding `O=C(Nc1nccs1)C(c1ncn2c1C[C@@H](F)C2)n1cc2c(Cl)cc(-c3ccc(C4CCN(C5CC(O)C5)CC4)cc3)c(Cl)c2n1` (mixture of isomers) [Example 87, rac-2-(4,7-Dichloro-6-(4-(1-(3-hydroxycyclobutyl)piperidin-4-yl)phenyl)-2H-indazol-2-yl)-2-((R)-6-fluoro-6,7-dihydro-5H-pyrrolo[1,2-c]imidazol-1-yl)-N-(thiazol-2-yl)acetamide], the IC50 worked out at 9 nM. Compared with the last molecule, the IC50 is about 1.5-fold higher.
As for `O=C(Nc1nccs1)C(c1ncn2c1C[C@@H](F)C2)n1cc2c(Cl)cc(-c3ccc(CN4CCC5(CC4)CC(O)C5)cc3)c(Cl)c2n1` (mixture of isomers) [Example 91, rac-2-(4,7-Dichloro-6-(4-((2-hydroxy-7-azaspiro[3.5]nonan-7-yl)methyl)phenyl)-2H-indazol-2-yl)-2-((R)-6-fluoro-6,7-dihydro-5H-pyrrolo[1,2-c]imidazol-1-yl)-N-(thiazol-2-yl)acetamide], the IC50 worked out at 8 nM.
For the molecule `O=C(Nc1nccs1)C(c1ncn2c1C[C@@H](F)C2)n1cc2c(Cl)cc(-c3ccc(OCCN4CCC5(CC4)CC(O)C5)cc3)c(Cl)c2n1` (mixture of isomers) [Example 92, rac-2-(4,7-Dichloro-6-(4-(2-(2-hydroxy-7-azaspiro[3.5]nonan-7-yl)ethoxy)phenyl)-2H-indazol-2-yl)-2-((R)-6-fluoro-6,7-dihydro-5H-pyrrolo[1,2-c]imidazol-1-yl)-N-(thiazol-2-yl)acetamide], the IC50 amounted to 13 nM.
In turn, `CN(Cc1ccc(-c2cc(Cl)c3cn(C(C(=O)Nc4nccs4)c4ncn5c4C[C@@H](F)C5)nc3c2Cl)cc1)C1CCC(O)CC1` (mixture of isomers) [Example 94, rac-2-(4,7-Dichloro-6-(4-(((4-hydroxycyclohexyl)(methyl)amino)methyl)phenyl)-2H-indazol-2-yl)-2-((R)-6-fluoro-6,7-dihydro-5H-pyrrolo[1,2-c]imidazol-1-yl)-N-(thiazol-2-yl)acetamide] yielded an IC50 of 4 nM. Against the preceding molecule, the IC50 is about 3.2-fold lower.
Consider `CN(Cc1ccc(-c2cc(Cl)c3cn(C(C(=O)Nc4nccs4)c4ncn5c4C[C@@H](F)C5)nc3c2Cl)cc1)C1CCCC(O)C1` (mixture of isomers) [Example 95, rac-2-(4,7-Dichloro-6-(4-(((3-hydroxycyclohexyl)(methyl)amino)methyl)phenyl)-2H-indazol-2-yl)-2-((R)-6-fluoro-6,7-dihydro-5H-pyrrolo[1,2-c]imidazol-1-yl)-N-(thiazolyl)acetamide], for which the IC50 turned out to be 6 nM.
Molecule `CN1CCN(Cc2ccc(-c3cc(Cl)c4cn(C(C(=O)Nc5nccs5)c5ncn6c5C[C@@H](F)C6)nc4c3Cl)cc2)CC1` (mixture of isomers) [Example 96, rac-2-(4,7-Dichloro-6-(4-((4-methylpiperazin-1-yl)methyl)phenyl)-2H-indazol-2-yl)-2-((R)-6-fluoro-6,7-dihydro-5H-pyrrolo[1,2-c]imidazol-1-yl)-N-(thiazol-2-yl)acetamide] came in with an IC50 of 6 nM.
The molecule `CC1(O)CCN(Cc2ccc(-c3cc(Cl)c4cn(C(C(=O)Nc5nccs5)c5ncn6c5C[C@@H](F)C6)nc4c3Cl)cc2)CC1` (mixture of isomers) [Example 97, rac-2-(4,7-Dichloro-6-(4-((4-hydroxy-4-methylpiperidin-1-yl)methyl)phenyl)-2H-indazol-2-yl)-2-((R)-6-fluoro-6,7-dihydro-5H-pyrrolo[1,2-c]imidazol-1-yl)-N-(thiazol-2-yl)acetamide] had an IC50 of 5 nM.
On to `COC1CCN(Cc2ccc(-c3cc(Cl)c4cn(C(C(=O)Nc5nccs5)c5ncn6c5C[C@@H](F)C6)nc4c3Cl)cc2)C1` (mixture of isomers) [Example 98, rac-2-(4,7-Dichloro-6-(4-((3-methoxypyrrolidin-1-yl)methyl)phenyl)-2H-indazol-2-yl)-2-((R)-6-fluoro-6,7-dihydro-5H-pyrrolo[1,2-c]imidazol-1-yl)-N-(thiazol-2-yl)acetamide], for which the IC50 was determined as 6 nM.
Under `O=C(Nc1nccs1)C(c1ncn2c1C[C@@H](F)C2)n1cc2c(Cl)cc(-c3ccc(CN4C[C@H]5COC[C@H]5C4)cc3)c(Cl)c2n1` (mixture of isomers) [Example 99, rac-2-(4,7-Dichloro-6-(4-0(3aR,6aS)-tetrahydro-1H-furo[3,4-c]pyrrol-5(3H)-yl)methyl)phenyl)-2H-indazol-2-yl)-2-((R)-6-fluoro-6,7-dihydro-5H-pyrrolo[1,2-c]imidazol-1-yl)-N-(thiazol-2-yl)acetamide] stands 6 nM.
The molecule `CC(O)C1CN(CCc2ccc(-c3cc(Cl)c4cn(C(C(=O)Nc5nccs5)c5ncn6c5C[C@@H](F)C6)nc4c3Cl)cc2)C1` (mixture of isomers) [Example 100, rac-2-(4,7-Dichloro-6-(4-(2-(3-(1-hydroxyethyl)azetidin-1-yl)ethyl)phenyl)-2H-indazol-2-yl)-2-((R)-6-fluoro-6,7-dihydro-5H-pyrrolo[1,2-c]imidazol-1-yl)-N-(thiazol-2-yl)acetamide] returned an IC50 of 12 nM.
On to `COCCNCCc1ccc(-c2cc(Cl)c3cn(C(C(=O)Nc4nccs4)c4ncn5c4C[C@@H](F)C5)nc3c2Cl)cc1` (mixture of isomers) [Example 101, rac-2-(4,7-Dichloro-6-(4-(24(2-methoxyethyl)amino)ethyl)phenyl)-2H-indazol-2-yl)-2-((R)-6-fluoro-6,7-dihydro-5H-pyrrolo[1,2-c]imidazol-1-yl)-N-(thiazol-2-yl)acetamide], for which the midpoint of inhibition, the IC50, lay at 10 nM. This IC50 and that of the molecule before are within 1.5-fold of each other.
In the case of `O=C(Nc1nccs1)C(c1ncn2c1C[C@@H](F)C2)n1cc2c(Cl)cc(-c3ccc(N4CCOCC4)cc3)c(C(F)F)c2n1` (mixture of isomers) [Example 106, rac-2-(4-Chloro-7-(difluoromethyl)-6-(4-morpholinophenyl)-2H-indazol-2-yl)-2-((R)-6-fluoro-6,7-dihydro-5H-pyrrolo[1,2-c]imidazol-1-yl)-N-(thiazol-2-yl)acetamide], the IC50 was determined as 8 nM.
Under `CCN1CCC(c2ccc(-c3cc(Cl)c4cn(C(C(=O)Nc5nccs5)c5ncn6c5C[C@@H](F)C6)nc4c3)cc2)CC1` (mixture of isomers) [Example 117, rac-2-(4-Chloro-6-(4-(1-ethylpiperidin-4-yl)phenyl)-2H-indazol-2-yl)-2-((R)-6-fluoro-6,7-dihydro-5H-pyrrolo[1,2-c]imidazol-1-yl)-N-(thiazol-2-yl)acetamide] stands 9 nM; under `Cc1cc(-c2ccc(C3CCN(CC(C)F)CC3)cc2)c(Cl)c2nn(C(C(=O)Nc3nccs3)c3ncn4c3C[C@@H](F)C4)cc12` (mixture of isomers) [Example 131, rac-2-(7-Chloro-6-(4-(1-(2-fluoropropyl)piperidin-4-yl)phenyl)-4-methyl-2H-indazol-2-yl)-2-((R)-6-fluoro-6,7-dihydro-5H-pyrrolo[1,2-c]imidazol-1-yl)-N-(thiazol-2-yl)acetamide], 192 nM.

For the origin of these results see patent publication US12479849B2, “EGFR inhibitors for the treatment of cancer” (Hoffmann-La Roche Inc., priority 2019, dated 2025).
